Where a SMILES comes first, the peptide text is derived from it. Bridges are numbered along the chain shown (N, C = ends).
Columns and labels:
E. coli ProRS [1] = target: T1, E. coli ProRS (Escherichia coli, UniProt P16659); assay: ProRS charging assay; type: biochemical
Procedure: One question that could be answered with peptides designed from these phage is whether or not they are directed to random regions on the target protein or if they target active sites and regions of other biological interactions. The peptides used in the above ELSAs were added to a charging assay to assess its affects on enzymatic activity of the target.

E. coli ProRS [2] = target: T1, E. coli ProRS; assay: ELSA of ProRS surrogate ligand; type: binding; conditions: tested on ProRS, GST-src SH3, GST, GST-UL44, TyrRS, GST-MDM2
Procedure: (§1) Target protein was immobilized in microtiter wells by incubating 0.5-2.0 μg per well in 100 μl of 0.1 M NaHCO3 overnight at 4° C. […] During the 1 hour blocking period, the SA-AP:surrogate ligand conjugate was prepared by mixing 2 μg SA-AP and 50 pmol biotinylated surrogate ligand for each well of target protein. (This corresponds to a 1:1 ratio of biotinylated peptide to biotin binding sites.) The mixture was incubated at room temperature for 15-20 minutes and then diluted with Tris-buffered saline-TWEEN-20 detergent (TBST) 10 mM Tris-HCl, pH 8.0, 150 mM NaCl, 0.05% TWEEN-20 detergent such that there was 100 μl of conjugate per well. For lower concentrations of surrogate ligand, an unrelated biotinylated peptide was titrated in to keep the total amount of biotinylated peptide at 50 pmol/well and total SA-AP at 2 μg/well.
(§2) After blocking, the wells were washed once with 200 μl TBST. The surrogate ligand:SA-AP conjugate was then added (100 μl/well) and incubated at room temperature for 2 hours. The wells were then washed 5 times with 300 μl TBST using a BioRad 1575 Immunowash plate washer. The assay was developed by adding 100 μl of pNPP and incubating at room temperature for 5-10 minutes. The absorbance was read at 405 nm.
(§3) A peptide corresponding to the most often isolated phage was synthesized and used in an ELSA as described in example 1. […]

E. coli ProRS [3] = target: T2, E. coli ProRS (Escherichia coli, UniProt P16659); assay: ELSA of ProRS surrogate ligand; type: binding; conditions: self-competition
T2 sequence (P16659 whole entry, looked up): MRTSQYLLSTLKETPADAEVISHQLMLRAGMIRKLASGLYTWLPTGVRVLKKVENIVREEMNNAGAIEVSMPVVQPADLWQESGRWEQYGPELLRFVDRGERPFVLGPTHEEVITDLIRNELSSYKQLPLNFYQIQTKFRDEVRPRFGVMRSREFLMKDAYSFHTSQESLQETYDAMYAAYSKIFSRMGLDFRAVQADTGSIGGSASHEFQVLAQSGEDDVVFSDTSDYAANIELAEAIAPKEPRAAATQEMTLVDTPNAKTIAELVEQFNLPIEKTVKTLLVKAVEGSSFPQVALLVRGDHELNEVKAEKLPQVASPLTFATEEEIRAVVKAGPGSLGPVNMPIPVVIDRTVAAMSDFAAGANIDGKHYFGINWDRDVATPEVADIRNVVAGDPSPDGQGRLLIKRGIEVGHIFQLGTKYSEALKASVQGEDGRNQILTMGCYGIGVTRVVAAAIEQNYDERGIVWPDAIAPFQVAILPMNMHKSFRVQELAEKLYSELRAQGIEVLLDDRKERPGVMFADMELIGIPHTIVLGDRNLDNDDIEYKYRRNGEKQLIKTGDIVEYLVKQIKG
Procedure: as §1, §2, §3

TyrRS = TyrRS (Haemophilus influenzae, UniProt P43836); assay: ELSA of TyrRS surrogate ligand; type: binding; conditions: tested on TyrRS, GST-src SH3, GST, GST-UL44, GST-MDM2, ProRS
Procedure: as §1
as §2, with “nm. […]” for “nm.”
The ability of the compound to inhibit the binding of the TyrRS1B peptide to TyrRS was determined. […]

TyrRS, sequence (P43836 whole entry): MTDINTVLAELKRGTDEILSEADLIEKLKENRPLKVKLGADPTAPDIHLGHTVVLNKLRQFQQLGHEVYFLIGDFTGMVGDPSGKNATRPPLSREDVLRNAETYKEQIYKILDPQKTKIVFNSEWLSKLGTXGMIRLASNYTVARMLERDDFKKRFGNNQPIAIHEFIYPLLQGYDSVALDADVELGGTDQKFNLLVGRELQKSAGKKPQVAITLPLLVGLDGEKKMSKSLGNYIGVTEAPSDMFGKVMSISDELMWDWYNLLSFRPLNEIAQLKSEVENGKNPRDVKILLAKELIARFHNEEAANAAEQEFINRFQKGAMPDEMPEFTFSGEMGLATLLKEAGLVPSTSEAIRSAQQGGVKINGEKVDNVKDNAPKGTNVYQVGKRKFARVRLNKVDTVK

## CC[C@H](C)[C@@H]1NC(=O)[C@H](C)NC(=O)[C@@H](NC(=O)[C@@H](NC(=O)[C@H](CCCNC(=N)N)NC(=O)[C@@H](N)CO)C(C)C)CSSC[C@@H](C(=O)N[C@@H](CO)C(=O)N[C@@H](CCCNC(=N)N)C(=O)O)NC(=O)CNC(=O)[C@H](CC(=O)O)NC(=O)[C@H](CC(C)C)NC(=O)[C@H](CC(=O)O)NC(=O)[C@@H]2CCCN2C(=O)[C@H](Cc2c[nH]c3ccccc23)NC1=O [ProRS BioKey, S R V C A I W P D L D G C S R] (H-SRVCAIWPDLDGCSR-OH; disulfide 4-13; N-terminus and C-terminus assumed)
E. coli ProRS [1]; 530 μM peptide
  time of preincubation with the peptide for 50% inhibition: about 1.5 hours
E. coli ProRS [1]; charging assay
  mode of inhibition: competitive in respect to proline
E. coli ProRS [2]
  specificity of binding of biotinylated peptide: specific for E. coli ProRS

## S R V C A I W P D L D G C S R (SRVCAIWPDLDGCSR) [non-biotinylated ProRS peptide]
E. coli ProRS [3]
  disruption of biotinylated ProRS peptide binding: disrupted in a dose dependent fashion

## L Y S W P D E Q Y E R P (LYSWPDEQYERP) [Peptide 1]
TyrRS
  specificity of binding of biotinylated peptide: binds to TyrRS specifically

Reference: US6617114B1, “Identification of drug complementary combinatorial libraries” (priority 1996, dated 2003)
